Laboratory results reported in ChEMBL document CHEMBL5058564, “EUbOPEN Chemogenomics Library 2 (Incucyte)” (2022).
Where a SMILES comes first, the peptide text is derived from it. [ ]: non-standard residue; d: D form. Arg(Me) = CNC(=N)NCCC[C@H](N)C(=O)O; d3Pal = N[C@H](Cc1cccnc1)C(=O)O; azaGly = NNC(=O)O

Tests used:
Format in all cases: toxicity, cell-based
HEK-293T = assay: Incucyte cell viability with HEK293T; settings: human, 10 µM, compound concentration 10 uM
Fibroblast = assay: Incucyte cell viability with human fibroblast; settings: 10 µM, compound concentration 10 uM
U2OS = assay: Incucyte cell viability with U2OS; settings: human, 10 µM, compound concentration 10 uM
[1] = 6 h, replicate number 1, timepoint 6 hours
[2] = 6 h, replicate number 2, timepoint 6 hours
[3] = 12 h, replicate number 1, timepoint 12 hours
[4] = 12 h, replicate number 2, timepoint 12 hours
[5] = 18 h, replicate number 1, timepoint 18 hours
[6] = 18 h, replicate number 2, timepoint 18 hours
[7] = 24 h, replicate number 1, timepoint 24 hours
[8] = 24 h, replicate number 2, timepoint 24 hours
[9] = 0 h, replicate number 1, timepoint 0 hours
[10] = 0 h, replicate number 2, timepoint 0 hours
Further: unitless GR value; below 1 slowed growth and below 0 cell loss.

Structure (SMILES): CC[C@H](Nc1ncnc2[nH]cnc12)c1nc2cccc(F)c2c(=O)n1-c1ccccc1 [IDELALISIB]
- Growth Rate (HEK-293T; [1]): 0.2
- Growth Rate (HEK-293T; [2]): 0.76
- Growth Rate (HEK-293T; [3]): 0.52
- Growth Rate (HEK-293T; [4]): 0.57
- Growth Rate (HEK-293T; [5]): 0.56
- Growth Rate (HEK-293T; [6]): 0.7
- Growth Rate (HEK-293T; [7]): 0.64
- Growth Rate (HEK-293T; [8]): 0.68
- Growth Rate (Fibroblast; [1]): -0.73
- Growth Rate (Fibroblast; [2]): 0.36
- Growth Rate (Fibroblast; [3]): -0.05
- Growth Rate (Fibroblast; [4]): 0.48
- Growth Rate (Fibroblast; [5]): -0.04
- Growth Rate (Fibroblast; [6]): 0.59
- Growth Rate (Fibroblast; [7]): -0.13
- Growth Rate (Fibroblast; [8]): 0.75
- Growth Rate (U2OS; [9]): 0.06
- Growth Rate (U2OS; [10]): -0.03
- Growth Rate (U2OS; [1]): 0.46
- Growth Rate (U2OS; [2]): 0.59
- Growth Rate (U2OS; [3]): 0.4
- Growth Rate (U2OS; [4]): 0.55
- Growth Rate (U2OS; [5]): 0.44
- Growth Rate (U2OS; [6]): 0.68
- Growth Rate (U2OS; [7]): 0.59
- Growth Rate (U2OS; [8]): 0.73

Structure (SMILES): O=S(=O)(c1ccccc1)c1cnc2c(N3CCNCC3)cccc2c1 [INTEPIRDINE]
- Growth Rate (HEK-293T; [9]): 1
- Growth Rate (HEK-293T; [10]): 0.98
- Growth Rate (Fibroblast; [9]): 0.87
- Growth Rate (Fibroblast; [10]): 0.36
- Growth Rate (Fibroblast; [1]): 0.23
- Growth Rate (Fibroblast; [3]): 0.57
- Growth Rate (Fibroblast; [5]): 0.61
- Growth Rate (Fibroblast; [6]): 0.94
- Growth Rate (Fibroblast; [7]): 0.42
- Growth Rate (Fibroblast; [8]): 0.98
- Growth Rate (U2OS; [9]): -0.78
- Growth Rate (U2OS; [2]): 0.23
- Growth Rate (U2OS; [4]): 0.78
- Growth Rate (U2OS; [6]): 0.82
- Growth Rate (U2OS; [8]): 0.84

Structure (SMILES): COc1ccc2[nH]c(I)c(CCNC(C)=O)c2c1 [IODOMELATONIN]
- Growth Rate (HEK-293T; [10]): 0.55
- Growth Rate (HEK-293T; [1]): 0.9
- Growth Rate (HEK-293T; [2]): 0.72
- Growth Rate (Fibroblast; [1]): 0.67
- Growth Rate (Fibroblast; [2]): 0.7
- Growth Rate (Fibroblast; [3]): 0.97
- Growth Rate (Fibroblast; [6]): 0.79
- Growth Rate (U2OS; [10]): -0.81
- Growth Rate (U2OS; [2]): 0.81
- Growth Rate (U2OS; [4]): 0.99
- Growth Rate (U2OS; [5]): 0.84
- Growth Rate (U2OS; [6]): 0.91
- Growth Rate (U2OS; [8]): 0.91

Structure (SMILES): CCCCC1=NC2(CCCC2)C(=O)N1Cc1ccc(-c2ccccc2-c2nnn[nH]2)cc1 [IRBESARTAN]
- Growth Rate (HEK-293T; [9]): 0.8
- Growth Rate (HEK-293T; [10]): 0.31
- Growth Rate (HEK-293T; [5]): 0.86
- Growth Rate (HEK-293T; [7]): 0.68
- Growth Rate (Fibroblast; [9]): 0.38
- Growth Rate (Fibroblast; [10]): 0.58
- Growth Rate (Fibroblast; [1]): -0.26
- Growth Rate (Fibroblast; [2]): 0.66
- Growth Rate (Fibroblast; [3]): -0.32
- Growth Rate (Fibroblast; [4]): 0.98
- Growth Rate (Fibroblast; [5]): 0.01
- Growth Rate (Fibroblast; [7]): 0.09
- Growth Rate (U2OS; [10]): -1
- Growth Rate (U2OS; [1]): 0.3
- Growth Rate (U2OS; [2]): 0.94
- Growth Rate (U2OS; [3]): 0.97
- Growth Rate (U2OS; [5]): 0.72
- Growth Rate (U2OS; [6]): 0.95
- Growth Rate (U2OS; [7]): 0.87
- Growth Rate (U2OS; [8]): 0.92

Structure (SMILES): c1cc(OCCCN2CCCCC2)ccc1CN1CCCCC1 [JNJ-5207852]
- Growth Rate (HEK-293T; [2]): 0.82
- Growth Rate (Fibroblast; [9]): 0.03
- Growth Rate (Fibroblast; [1]): 0.31
- Growth Rate (Fibroblast; [4]): 0.6
- Growth Rate (Fibroblast; [7]): 0.68
- Growth Rate (U2OS; [9]): -0.13
- Growth Rate (U2OS; [2]): 0.76
- Growth Rate (U2OS; [4]): 0.92
- Growth Rate (U2OS; [6]): 0.94

Structure (SMILES): CNC(=N)NCCC[C@H](NC(=O)[C@H](CC(C)C)NC(=O)NNC(=O)[C@H](Cc1ccccc1)NC(=O)[C@H](CO)NC(=O)[C@H](CC(N)=O)NC(=O)[C@@H](Cc1cccnc1)NC(=O)[C@H](N)Cc1ccc(O)cc1)C(=O)NCC(N)=O [KISS1-543] (H-[dY][d3Pal]NSF[azaGly]L[Arg(Me)]G-NH2)
- Growth Rate (HEK-293T; [9]): 0.75
- Growth Rate (HEK-293T; [10]): 0.71
- Growth Rate (HEK-293T; [1]): 0.69
- Growth Rate (HEK-293T; [3]): 0.68
- Growth Rate (HEK-293T; [5]): 0.68
- Growth Rate (HEK-293T; [7]): 0.71
- Growth Rate (HEK-293T; [8]): 0.84
- Growth Rate (Fibroblast; [10]): 0.66
- Growth Rate (Fibroblast; [2]): 0.8
- Growth Rate (Fibroblast; [3]): 0.41
- Growth Rate (Fibroblast; [5]): 0.5
- Growth Rate (Fibroblast; [6]): 0.76
- Growth Rate (Fibroblast; [7]): 0.46
- Growth Rate (Fibroblast; [8]): 0.72
- Growth Rate (U2OS; [10]): 0.72
- Growth Rate (U2OS; [1]): 0.84
- Growth Rate (U2OS; [4]): 0.89
- Growth Rate (U2OS; [6]): 0.99
- Growth Rate (U2OS; [8]): 1

Structure (SMILES): CCCCCCNC(=O)Nc1ccc(S(=O)(=O)Nc2ccc(CCNC[C@H](O)COc3ccc(O)cc3)cc2)cc1 [L-755507]
- Growth Rate (HEK-293T; [9]): 0.4
- Growth Rate (HEK-293T; [2]): 0.53
- Growth Rate (HEK-293T; [4]): 0.94
- Growth Rate (Fibroblast; [9]): 0.5
- Growth Rate (Fibroblast; [10]): 0.79
- Growth Rate (Fibroblast; [1]): 0.91
- Growth Rate (Fibroblast; [2]): -0.46
- Growth Rate (Fibroblast; [4]): 0.47
- Growth Rate (U2OS; [1]): 0.25
- Growth Rate (U2OS; [2]): 0.75
- Growth Rate (U2OS; [3]): 0.32
- Growth Rate (U2OS; [4]): 0.7
- Growth Rate (U2OS; [5]): 0.87
- Growth Rate (U2OS; [6]): 0.79
- Growth Rate (U2OS; [7]): 0.87
- Growth Rate (U2OS; [8]): 0.89
